In US20230053540A1, “TREATMENT OF LIVER INJURY” (Massachusetts Institute of Technology, priority 2019, published 2023):

Test system: hepatocytes
Test: Seq-Well scRNA-Seq of hepatocytes after APAP overdose (signature scores, DEG vs untreated)
Assay type: in vivo, mouse
Conditions: A6 vs UT

Structure (SMILES): CC(=O)Nc1ccc(O)cc1 [APAP, acetaminophen]
- Med13 A6logFC: 0.2949
- Med13 avg_logFC: 0.2949
- Med13 pct.1: 0.325
- Megf9 A6logFC: 0.2769
- Megf9 avg_logFC: 0.2769
- Megf9 pct.1: 0.289
- Mettl7b avg_logFC: −0.4527
- Mettl7b pct.1: 0.647
- Mettl20 avg_logFC: −0.3314
- Mettl20 pct.1: 0.119
- Mfsd2a avg_logFC: 0.6661
- Mgea5 A6logFC: 0.3263
- Mgea5 avg_logFC: 0.3263
- Mgea5 pct.1: 0.413
- Mgst1 avg_logFC: −1.06
- Minos1 avg_logFC: −0.4555
- Minos1 pct.1: 0.332
- Mlycd avg_logFC: −0.2909
- Mlycd pct.1: 0.329
- Mmp8 avg_logFC: 0.359
- Mmp14 avg_logFC: 0.2889
- Mmp14 pct.1: 0.253
- Mpc2 avg_logFC: −0.4828
- Mpc2 pct.1: 0.599
- Mpeg1 avg_logFC: 0.4935
- Mpeg1 pct.1: 0.263
- Mrap avg_logFC: 0.8841
- Mrp63 avg_logFC: −0.4422
- Mrp63 pct.1: 0.277
- Mrpl11 A6logFC: −0.2685
- Mrpl15 A6logFC: −0.2912
- Mrpl20 A6logFC: −0.3093
- Mrpl20 avg_logFC: −0.3093
- Mrpl20 pct.1: 0.301
- Mrpl28 A6logFC: −0.2699
- Mrpl28 avg_logFC: −0.2699
- Mrpl28 pct.1: 0.229
- Mrpl33 A6logFC: −0.2654
- Mrpl34 A6logFC: −0.2838
- Mrpl41 A6logFC: −0.2674
- Mrpl42 A6logFC: −0.2845
- Mrps12 A6logFC: −0.2504
- Mrps12 avg_logFC: −0.2504
- Mrps12 pct.1: 0.193
- Mrps24 avg_logFC: −0.3904
- Mrps24 pct.1: 0.31
- Msrb1 avg_logFC: −0.599
- Mt1 avg_logFC: 2.388
- Mt2 avg_logFC: 2.063
- Mthfd2 avg_logFC: 0.2624
- Mug2 avg_logFC: 0.3683
- Mug2 pct.1: 0.776
- Mup3 avg_logFC: −0.7035
- Mup4 avg_logFC: −0.9953
- Mup5 avg_logFC: −1.237
- Mup6 avg_logFC: −1.872
- Mup7 avg_logFC: −0.9414
- Mup8 avg_logFC: −0.7526
- Mup8 pct.1: 0.098
- Mup9 avg_logFC: −2.004
- Mup11 avg_logFC: −3.214
- Mup12 avg_logFC: −1.27
- Mup15 avg_logFC: −1.316
- Mup16 avg_logFC: −1.602
- Mup17 avg_logFC: −2.354
- Mup18 avg_logFC: −1.628
- Mup19 avg_logFC: −2.396
- Mup21 avg_logFC: −0.8272
- Mvd A6logFC: −0.2704
- Mxd1 A6logFC: 0.2978
- Mybbp1a avg_logFC: 0.4312
- Mybbp1a pct.1: 0.396
- Myeov2 A6logFC: −0.3052
- Myeov2 avg_logFC: −0.3052
- Myeov2 pct.1: 0.303
- Myh9 avg_logFC: 1.16
- Myl12a avg_logFC: 0.3908
- Myl12a pct.1: 0.461
- Myo1b A6logFC: 0.2624
- Myo1e avg_logFC: 0.6143
- Naa50 A6logFC: 0.2657
- Naa50 avg_logFC: 0.2657
- Naa50 pct.1: 0.444
- Naprt1 A6logFC: −0.3381
- Nars avg_logFC: 0.4378
- Nars pct.1: 0.606
- Ncl avg_logFC: 0.4845
- Ncl pct.1: 0.69
- Ndufa2 avg_logFC: −0.3965
- Ndufa2 pct.1: 0.492
- Ndufa3 avg_logFC: −0.4116
- Ndufa3 pct.1: 0.344
- Ndufa4 avg_logFC: −0.6831
- Ndufa5 A6logFC: −0.252
- Ndufa5 avg_logFC: −0.252
- Ndufa5 pct.1: 0.418
- Ndufa6 avg_logFC: −0.6136
- Ndufa7 avg_logFC: −0.5559
- Ndufa7 pct.1: 0.406
- Ndufa13 avg_logFC: −0.4388
- Ndufa13 pct.1: 0.549
- Ndufb3 A6logFC: −0.3272
- Ndufb6 avg_logFC: −0.5077
- Ndufb6 pct.1: 0.475
- Ndufb9 avg_logFC: −0.5038
- Ndufb9 pct.1: 0.661
- Ndufb10 A6logFC: −0.3004
- Ndufc2 avg_logFC: −0.4253
- Ndufc2 pct.1: 0.36
- Ndufs4 A6logFC: −0.3132
- Ndufs6 avg_logFC: −0.5379
- Ndufs6 pct.1: 0.482
- Ndufv2 A6logFC: −0.3276
- Ndufv2 avg_logFC: −0.3276
- Ndufv2 pct.1: 0.461
- Neat1 avg_logFC: 0.6374
- Neat1 pct.1: 0.31
- Nek7 A6logFC: 0.2911
- Nek7 avg_logFC: 0.2911
- Nek7 pct.1: 0.394
- Net1 A6logFC: 0.3479
- Nid1 avg_logFC: 0.3426
- Nit2 avg_logFC: −0.4859
- Nit2 pct.1: 0.301
- Nolc1 avg_logFC: 0.4722
- Nolc1 pct.1: 0.363
- Nop56 avg_logFC: 0.2657
- Nop56 pct.1: 0.282
- Nop58 avg_logFC: 0.6634
- Nploc4 A6logFC: 0.2918
- Nploc4 avg_logFC: 0.2918
- Nploc4 pct.1: 0.351
- Nqo2 A6logFC: −0.2678
- Nqo2 avg_logFC: −0.2678
- Nqo2 pct.1: 0.317
- Nr0b2 avg_logFC: −0.293
- Nr0b2 pct.1: 0.086
- Nr1i3 avg_logFC: −0.4127
- Nr1i3 pct.1: 0.165
- Nr2f6 avg_logFC: −0.3754
- Nr2f6 pct.1: 0.234
- Nrip1 avg_logFC: 0.2729
- Nrip1 pct.1: 0.246
- Nucks1 A6logFC: 0.3558
- Nudt4 A6logFC: 0.2542
- Nudt7 avg_logFC: −1.564
- Oaf avg_logFC: −0.7329
- Oat avg_logFC: −1.225
- PM20l1 avg_logFC: 0.3085
- PM20l1 pct.1: 0.372
- Pa2g4 A6logFC: 0.2893
- Pa2g4 avg_logFC: 0.2893
- Pa2g4 pct.1: 0.492
- Pabpc1 avg_logFC: 0.4101
- Pabpc1 pct.1: 0.697
- Pah avg_logFC: −0.5221
- Pak2 avg_logFC: 0.2815
- Pak2 pct.1: 0.308
- Papss2 A6logFC: −0.2545
- Papss2 avg_logFC: −0.2545
- Papss2 pct.1: 0.337
- Paqr9 A6logFC: −0.3323
- Park7 avg_logFC: −0.2602
- Park7 pct.1: 0.601
- Pbld1 avg_logFC: −0.4425
- Pbld1 pct.1: 0.315
- Pcbd1 avg_logFC: −0.6878
- Pck1 avg_logFC: −0.6522
- Pcm1 A6logFC: 0.2654
- Pcm1 avg_logFC: 0.2654
- Pcm1 pct.1: 0.274
- Pde3b A6logFC: −0.259
- Pde3b avg_logFC: −0.259
- Pde3b pct.1: 0.243
- Pdia4 avg_logFC: −0.2719
- Pdia4 pct.1: 0.43
- Pdia6 avg_logFC: −0.39
- Pdia6 pct.1: 0.47
- Pdzd8 A6logFC: 0.2863
- Pdzd8 avg_logFC: 0.2863
- Pdzd8 pct.1: 0.36
- Pecr avg_logFC: −0.3981
- Pecr pct.1: 0.446
- Pet100 A6logFC: −0.28
- Pfkfb2 avg_logFC: 0.29
- Pfkfb2 pct.1: 0.26
- Pgls A6logFC: −0.2747
- Pgls avg_logFC: −0.2747
- Pgls pct.1: 0.22
- Phf20l1 A6logFC: 0.3085
- Phlda1 avg_logFC: 0.5492
- Pi4k2a A6logFC: 0.3536
- Picalm avg_logFC: 0.7545
- Pigr avg_logFC: 0.3487
- Pigr pct.1: 0.947
- Pkp4 A6logFC: 0.323
- Pkp4 avg_logFC: 0.323
- Pkp4 pct.1: 0.401
- Pla2g7 avg_logFC: 0.2823
- Pla2g7 pct.1: 0.119
- Plbd2 A6logFC: 0.2649
- Plbd2 avg_logFC: 0.2649
